Measured values: patent publication US4778802A, “Heterocyclic compounds” (John Wyeth & Brother, Ltd., priority 1985, dated 1988)
Like-named read-outs stand apart in the source and are kept apart here.

Columns and labels:
[1] = test system: pCA-induced 5-HT syndrome; test: Inhibition of p-chloroamphetamine (pCA)-induced stereotypy in rats, p.o.; type: in vivo, male Sprague-Dawley rats; details: for inhibition of syndrome at 50 mg/kg: 50 mg/kg p.o.; for ED50: Rattus norvegicus, po; for antagonism of pCA-induced stereotypy (in words): 5 dose levels
Description: Representative compounds of this invention were tested for their ability to inhibit pCA induced syndrome in rats by the standard procedure described below:
(§1) Inhibition of p-chloroamphetamine (pCA)-induced stereotypy
Vehicle or drug (5 dose levels) were administered p.o. to six groups of 6-8 male Sprague-Dawley rats (300-400 g) followed, 90 minutes later, by pCA (10 mg/kg i.p.). The animals were then placed in individual observation chambers and, 30 minutes after pCA administration, the intensity of the pCA-induced 5-HT syndrome was assessed according to the following scoring system:
head-weaving 0, 1, 2 or 3 according to
fore-paw treading severity
(§2) tremor 0 (absent) or 1 (present)
Therefore, the maximum score for each animal was 10.
(§3) The inhibition of pCA induced stereotypy is calculated for each dose level as follows: [formula] where
C=control group total score at 30 minutes post pCA.
T=group total score of treated group at 30 minutes post pCA.
For each dose a % effect is calculated.
The results obtained from the tests using 5 different dose levels of the drug allow the ED50 value (i.e. the dose required to produce 50% inhibition of pCA induced stereotypy) to be calculated.
The test was carried out using the free bases except for compound C which was tested in the form if its maleate salt and the result corrected for amount of active material.

[2] = test system: 5-hydroxy-L-tryptophan induced behavioural syndrome; test: Potentiation of 5-hydroxytryptophan (5-HTP)-induced behaviour in rats; type: in vivo, male Sprague-Dawley rats; details: Rattus norvegicus, po
Description: The compounds B and C were also tested for their ability to potentiate 5-hydroxy-L-tryptophan induced behavioural syndrome in rats. The test procedure is described below (updated from that described in UK No. 2073179B).
Potentiation of 5-hydroxytryptophan (5-HTP)-induced behaviour
Groups of 10 male Sprague-Dawley rats (310-360 g) were dosed p.o. with vehicle or drugs. Ninety minutes later 5-HTP (50 mg/kg s.c.) was administered and the animals placed in individual observation chambers (peripheral decarboxylation was prevented by 25 mg/kg i.p. carbidopa administered 60 minutes before 5-HTP). Head shakes were counted over the period 30-45 minutes after 5-HTP and the intensity of the 5-HT syndrome was scored immediately afterwards using the system described for the pCA procedure above. Percentage potentiation of syndrome was calculated as follows: […]
0, 1, 2 or 3 according to severity
as §2
Percentage potentiation was calculated from the following: [formula]

[3] = test system: 5-HT uptake into rat brain synaptosomes; test: Inhibition of 5-HT uptake into rat brain synaptosomes; type: biochemical, male Sprague Dawley rats; details: for IC50: 37°, 4 minutes; for Selectivity Ratio (5-HT uptake relative to NA uptake): from IC50 NA and IC50 5-HT
Description: (§4) In vitro tests have shown that compounds of formula I also have a marked degree of selectivity in inhibiting uptake of 5-HT into rat brain synaptosomes relative to uptake of ^3 H noradrenaline. The test procedure involved obtaining synaptosomal preparations from male Sprague Dawley rats according to the method of Grey and Whittaker* as modified by Wood & Wyllie.** Aliquots of the synaptosomal preparation were then incubated with tritrated noradrenaline (NA) or 5-HT at a temperature of 37° for 4 minutes. The active synaptosomal accumulation of labelled substrate was measured by filtration and scintillation counting. The effect at a range of concentrations of test compound enabled IC50 values and selectivity ratios to be calculated.

[4] = test system: 3H noradrenaline (NA) uptake into rat brain synaptosomes; test: Inhibition of 3H noradrenaline (NA) uptake into rat brain synaptosomes; type: biochemical, male Sprague Dawley rats; details: 37°, 4 minutes
Description: as §4

[5] = test system: pCA-induced stereotypy; test: Duration of action: inhibition of pCA-induced stereotypy at various times after dosing; type: in vivo, male Sprague-Dawley rats; details: 6 mg/kg p.o.
Description: as §1
The animals were then placed in individual observation chambers and, 30 minutes after pCA administration, the intensity of the pCA-induced 5-HT syndrome was assessed according to the following scoring system:
as §3

[6] = test system: pCA syndrome; test: Related duration test on pCA syndrome (with modified scoring); type: in vivo; details: 15 mg/kg
[7] = rats, p.o., 90 min before pCA 10 mg/kg i.p., scored 30 min after pCA, free bases except C (maleate, corrected for active material), read-out: ED50 (dose required to produce 50% inhibition of pCA induced stereotypy)
[8] = rats, p.o., 90 min before 5-HTP 50 mg/kg s.c., carbidopa 25 mg/kg i.p., value of C corrected for amount of active ingredient, read-out: ED50 (potentiation of 5-HTP-induced behavioural syndrome)

Structure (SMILES) | inhibition of syndrome at 50 mg/kg ([1]; rats) | ED50 [1, 7] [mg/kg] | antagonism of pCA-induced stereotypy (in words) ([1]; rats, p.o.) | ED50 [2, 8] [mg/kg] | IC50 [3] [µM] | Selectivity Ratio (5-HT uptake relative to NA uptake) [3] | IC50 [4] [µM] | % Inhibition of pCA induced stereotypy, time 2 ([5]; time 2 after administration of 5-HT inhibitor (time unit not given)) | % Inhibition of pCA induced stereotypy, time 6 ([5]; time 6 after administration of 5-HT inhibitor (time unit not given)) [%] | % Inhibition of pCA induced stereotypy, time 12 ([5]; time 12 after administration of 5-HT inhibitor (time unit not given)) [%] | % Inhibition of pCA induced stereotypy, time 16 ([5]; time 16 after administration of 5-HT inhibitor (time unit not given)) [%] | ED50 ([1]; same test, monohydrochloride corrected for amount of active ingredient, read-out: ED50 (inhibition of pCA induced stereotypy), panuramine) [mg/kg] | ED50 ([2]; same test, corrected for amount of base, read-out: ED50 (potentiation of 5-HTP-induced behavioural syndrome), panuramine HCl salt) [mg/kg] | duration of action (in words) [6] | inhibition after 16 hours ([6]; 16 hours) [%] | inhibition after two hours ([6]; two hours) [%]
O=C(NC(=O)c1ccc2ncccc2c1)NC1CCN(Cc2ccc3ccccc3c2)CC1 [A, N-[[[1-(2-naphthalenylmethyl)-4-piperidinyl]amino]-carbonyl]-6-quinolinecarboxamide] | 99% | 2.7 | antagonised pCA-induced stereotypy in a dose-dependent manner | – | – | – | – | – | – | – | – | – | – | – | – | –
O=C(NC(=O)c1ccc2ncccc2c1)NC1CCN(Cc2ccc3ncccc3c2)CC1 [B, N-[[[1-(quinol-6-ylmethyl)-4-piperidinyl]amino]-carbonyl]-6-quinolinecarboxamide] | 99% | 6.5 | antagonised pCA-induced stereotypy in a dose-dependent manner | 7.3 | 0.043 | 207 | 8.9 | – | – | – | – | – | – | – | – | –
O=C(NC(=O)c1ccc2ncccc2c1)NC1CCN(Cc2ccc3cc(F)ccc3c2)CC1 [C, N-[[[1-(6-fluoro-2-naphthalenylmethyl)-4-piperidinyl]-amino]-carbonyl]-6-quinolinecarboxamide] | 99% | 2.1 | antagonised pCA-induced stereotypy in a dose-dependent manner | 2.4 | 0.082 | 450 | 37 | ca. 79% | 82.8 | 56.9 | 57.6 | – | – | – | – | –
O=C(NC(=O)c1ccccc1)NC1CCN(Cc2ccc3ccccc3c2)CC1 [panuramine, 1-benzoyl-3-[1-(naphth-2-ylmethyl)piperid-4-yl]urea, reference compound] | ca. 78% | – | – | – | 0.063 | 135 | 8.5 | – | – | – | – | 16.2 | 27.4 | much shorter duration of action | 12.2 | 65.1
